Source: patent US12059498B2, “Preparation and storage of liposomal RNA formulations suitable for therapy” (BioNTech SE, priority 2017, dated 2024)
Entries after “also recorded” stand apart in the source; their conditions may differ.

Test: Freezing of RNA lipoplexes with cryoprotectants, particle size
Settings: RNA lipoplexes frozen with increasing concentration of the compound
Excerpt: Methods: Different compounds representative for monosaccharides (glucose and sorbitol), disaccharides (sucrose and trehalose), amino acids (arginine, prolin), triols (glycerin) as well as cryoprotectant systems containing mixtures of different sugars (mannitol and sucrose) were investigated in order to identify suited cryoprotectants (FIGS. 25 and 26). Therefore RNA lipoplexes were frozen in the presence of increasing concentration of these compounds. In order to identify minimum content of cryoprotectant at a certain concentration of NaCl, RNA lipoplexes were frozen in the presence of increasing amounts of sucrose or trehalose as representative cryoprotectants (Table 7). The samples were initially frozen a single time in order to determine the concentration range of cryoprotectant to be investigated in detail. In a third experiment, the efficacy of stabilization of the particle size was challenged by freezing of the RNA lipoplexes up to 10 times in the presence of the cryoprotectant trehalose (Table 8).

| Compound | stabilization of RNA lipoplexes during freezing (as cryoprotectant) |
| --- | --- |
| OCC(O)CO [Glycerin] | can be used as cryoprotectants |
| N=C(N)NCCC[C@H](N)C(=O)O [arginine] | clearly destabilizes the RNA lipoplexes |
| OC[C@@H](O)[C@@H](O)[C@H](O)[C@@H](O)CO [sorbitol] | can be used as cryoprotectants; also recorded: lower |
